Like-named read-outs stand apart in the source and are kept apart here.
Columns and labels:
activated MEK1 = target: T1, activated MEK1 (Homo sapiens, UniProt Q02750); experiment: MEK Lance Ultra experiment; type: biochemical; settings: 0.07 nM activated MEK1, 2 nM non-activated ERK, 50 μM ATP; read-out: MEK potency IC50
T1 construct: purchased Millipore 14-429
Description: Biological Test Method 1: MEK Lance Ultra Experiment Compounds were serially diluted three-fold to 10 concentrations, two duplicates were set. Final test concentrations of the compounds ranged from 10 μM to 0.51 nM. 0.07 nM activated MEK1 (Millipore #14-429) and 2 nM non-activated ERK (Millipore #14-515) were mixed with the compounds or DMSO, the mixture was incubated at 23° C. for 30 minutes. Then 50 nM ULight labeled MBP (PerkinElmer #TRF0109-M) and 50 μM ATP (Invitrogen #PV3227) were added to initiate the reaction, and the mixture was incubated at 23° C. for 90 minutes. After the reaction was stopped by adding EDTA at a final concentration of 15 mM, 2 nM Eu-labeled anti-phosphorylated antibody (PerkinElmer #TRF0201-M) was added and incubated for 1 hour. The fluorescence signal data (excitation band: 320 nm; emission band: 665 nM/615 nM) was determined by an Envision microplate reader (PerkinElmer). XLfit5 software was used for data analysis and mapping.

A375 cells = experiment: Cell viability experiment (Cell Titer-Glo), A375; type: cell-based; settings: Homo sapiens, A-375, 72 h
Description: (§1) Biological Test Method 2: Cell Viability Experiment
(§2) HT29 and A375 cells were plated in a 96-well cell culture plate at a density of 40,000 cells/well and 20,000 cells/well respectively, and the cells were cultured overnight. The compounds were serially diluted in a gradient of 1:3, the dilutions were added to the cell culture medium, and incubated with the cells in a 37° C. incubator for 3 days. The 96-well cell culture plate was taken from the incubator and equilibrated at room temperature for 30 minutes, then Cell Titer-Glo reagent (Promega Cat #G7573) was added at a ratio of 1:2, and the mixture was mixed thoroughly on a shaker for 2 minutes to promote cell lysis. The cell culture plate was incubated at room temperature for 10 minutes and then read on an Envision microplate reader (PerkinElmer). XLfit5 software was used for data analysis and mapping.

[1] = Pharmacokinetics study of the compounds in C57BL/6 mice; type: in vivo; settings: male, mouse, single intravenous and oral dose, plasma; for bioavailability: read-out: Bioavailability F; for AUC: read-out: Comcentration quadrature AUC; for half-life: read-out: Half life T1/2 (converted)
Description: Biological Test Method 4: Pharmacokinetics Study of the Compounds in C57BL/6 Mice Experimental Materials: C57BL/6 mice (male, 18-22 g, 7-9 weeks old, Shanghai Lingchang) Experimental Procedure: The pharmacokinetic characteristics of the compounds in rodents were determined after intravenous and oral administration of the compounds by standard protocols. In the experiment, candidate compounds were formulated into clear solutions, and intravenously and orally administrated to […] in a single dose. The menstruum for intravenous and oral administration was DMSO, PEG and water at a certain ratio or Solutol, HPMC and SLS aqueous solutions at a certain ratio. The whole blood samples within 24 hours were collected, centrifuged at 3,000 rpm for 15 minutes, and the supernatants were isolated to obtain plasma samples. An acetonitrile solution containing an internal standard with a volume of 4 times as the plasma sample volume was added to precipitate the protein. After centrifugation, the supernatant was collected and an equal volume of water was added. After centrifugation, the supernatant was collected and injected to quantitatively analyze the blood drug concentration by LC-MS/MS analysis method, and the pharmacokinetic parameters were calculated, e.g., peak concentration, peak time, clearance, half-life, area under the drug concentration-time curve, bioavailability, etc.

[2] = test system: HT-29 cell subcutaneous xenograft tumor; experiment: In vivo pharmacodynamics study on HT-29 cell subcutaneous xenograft tumor model; set-up: species or system BALB/c nude mouse; settings: QD
Description: Biological Test Method 3: In Vivo Pharmacodynamics Study on HT-29 Cell Subcutaneous Xenograft Tumor Model in BALB/c Nude Mouse
Human colon cancer HT-29 cells (ATCC-HTB-38) were cultured in monolayer in vitro, with McCoy's 5a medium (Gibco, 1835937) supplemented with 10% fetal bovine serum, 100 U/mL penicillin and 100 μg/mL streptomycin, at 37° C. under 5% CO2. The cells were conventionally digested with trypsin-EDTA and passaged twice a week. When the cell saturation was 80%-90%, the cells were collected, counted and inoculated. 0.1 mL (5×10^6) of HT-29 cells was subcutaneously inoculated into the right back of each nude mouse. […] The diameter of the tumor was measured twice a week with a vernier caliper. The tumor volume is calculated by the formula: V=0.5a×b^2, wherein a and b represent the length and width respectively. The antitumor activity of the compounds was evaluated by TGI (%), which reflects the tumor growth inhibition rate. Calculation of TGI (%): TGI (%)=[(1−(average tumor volume at the end of administration in a treatment group−average tumor volume at the start of treatment in this treatment group))/(average tumor volume at the end of treatment in the solvent control group−average tumor volume at the start of treatment in the solvent control group)]×100%.

HT29 cells = experiment: Cell viability experiment (Cell Titer-Glo), HT29; type: cell-based, human; settings: Homo sapiens, HT-29, 72 h
Description: as §1, §2

[3] = A375 cells, 3 days incubation, read-out: A375 IC50
[4] = HT29 cells, 3 days incubation, read-out: HT29 IC50
[5] = read-out: A375 IC50, A375 cells, 3 days incubation
[6] = read-out: HT29 IC50, HT29 cells, 3 days incubation

T1 sequence (Q02750 whole entry): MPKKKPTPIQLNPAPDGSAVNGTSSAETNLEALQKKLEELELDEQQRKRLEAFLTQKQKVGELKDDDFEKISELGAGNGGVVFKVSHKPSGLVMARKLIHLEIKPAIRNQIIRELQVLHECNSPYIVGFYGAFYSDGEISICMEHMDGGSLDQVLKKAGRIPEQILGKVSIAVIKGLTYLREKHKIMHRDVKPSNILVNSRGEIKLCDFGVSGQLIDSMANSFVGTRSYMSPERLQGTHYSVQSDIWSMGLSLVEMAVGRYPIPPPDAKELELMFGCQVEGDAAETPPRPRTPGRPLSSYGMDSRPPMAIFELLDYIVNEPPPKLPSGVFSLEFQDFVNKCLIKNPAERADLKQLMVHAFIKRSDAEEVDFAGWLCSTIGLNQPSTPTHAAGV

SMILES | IC50 (activated MEK1) [nM] | IC50 (A375 cells; [3]) [nM] | IC50 (HT29 cells; [4]) [nM] | further results
Cc1c(NS(C)(=O)=O)cccc1-c1c(C)n(C2CC2)c(=O)c2c(Nc3ccc(I)cc3F)c(C)c(=O)oc12 (single isomer, unassigned) [WX113] | 5.61 | 0.37 | 0.82 | clearance [1]: 2.92 mL/min/kg; bioavailability [1]: 73.1%; AUC [1]: 17.6 µM·h; half-life [1]: 4.64 h; TGI ([2]; 0.2 mpk, 25 days (5 days administration, and 2 days break)): 82.8%
CC(=O)Nc1cccc(-c2c(C)n(C3CC3)c(=O)c3c(Nc4ccc(I)cc4F)c(C)c(=O)oc23)c1 [WX034] | 27.8 | 1.48 | 6.39 | clearance [1]: 1.84 mL/min/kg; bioavailability [1]: 68.7%; AUC [1]: 30.5 µM·h; half-life [1]: 5.41 h; TGI ([2]; 3 mpk, 21 days): 90.6%
Cc1c(Nc2ccc(I)cc2F)c2c(=O)n(C3CC3)c(C)c(-c3cccc(CNS(C)(=O)=O)c3)c2oc1=O [WX088] | 45.4 | 2.13 | 4.59 | 
Cc1c(Nc2ccc(I)cc2F)c2c(=O)n(C3CC3)c(C)c(-c3cccc(NS(=O)(=O)C4CC4)c3)c2oc1=O [WX089] | 61.1 | 0.47 | 1.32 | 
Cc1c(Nc2ccc(I)cc2F)c2c(=O)n(C3CC3)c(C)c(-c3cccc(N[S+]([O-])C(C)(C)C)c3)c2oc1=O (stereo not shown) [WX091] | 128 | 10.1 | 35.6 | 
Cc1c(Nc2ccc(I)cc2F)c2c(=O)n(C3CC3)c(C)c(-c3cccc(CNS(N)(=O)=O)c3)c2oc1=O [WX092] | 178 | 7.54 | 8.96 | 
Cc1c(Nc2ccc(I)cc2F)c2c(=O)n(C3CC3)c(C)c(-c3cccc(NCCO)c3)c2oc1=O [WX093] | 110 | 8.8 | 23.4 | 
COC(=O)Nc1cccc(-c2c(C)n(C3CC3)c(=O)c3c(Nc4ccc(I)cc4F)c(C)c(=O)oc23)c1 [WX094] | 45.2 | 5.47 | 18.9 | 
Cc1c(Nc2ccc(I)cc2F)c2c(=O)n(C3CC3)c(C)c(-c3cccc(NS(=O)(=O)C(C)(C)C)c3)c2oc1=O [WX095] | 48.6 | 0.79 | 1.77 | 
CC(=O)Nc1cccc(-c2c(C)n(C3CC3)c(=O)c3c(Nc4ccc(I)cc4F)c(C)c(=O)oc23)c1C [WX096] | 8.73 |  |  | IC50 (A375 cells; [5]): 2.47 nM; IC50 (HT29 cells; [6]): 10.3 nM
CNCc1cccc(-c2c(C)n(C3CC3)c(=O)c3c(Nc4ccc(I)cc4F)c(C)c(=O)oc23)c1 [WX097] | 29.5 | 17.2 | 105 | 
Cc1c(Nc2ccc(I)cc2F)c2c(=O)n(C3CC3)c(C)c(-c3cccc(CN(C)C)c3)c2oc1=O [WX098] | 28.5 | 11.9 | 90.3 | 
CNC(=O)Nc1cccc(-c2c(C)n(C3CC3)c(=O)c3c(Nc4ccc(I)cc4F)c(C)c(=O)oc23)c1 [WX099] | 49.1 | 4.72 | 12.4 | 
Cc1c(Nc2ccc(I)cc2F)c2c(=O)n(C3CC3)c(C)c(-c3cccc(CS(=O)(=O)CCO)c3)c2oc1=O [WX100] | 114 | 2.11 | 6.84 | 
Cc1c(Nc2ccc(I)cc2F)c2c(=O)n(C3CC3)c(C)c(Cc3cccc(N)c3)c2oc1=O [WX101] | 17.4 | 1.76 | 12.6 | 
CC(=O)Nc1cccc(Cc2c(C)n(C3CC3)c(=O)c3c(Nc4ccc(I)cc4F)c(C)c(=O)oc23)c1 [WX102] | 12.3 | 0.37 | 2.05 | 
Cc1c(Nc2ccc(I)cc2F)c2c(=O)n(C3CC3)c(C)c(-c3cccc(NC(N)=O)c3)c2oc1=O [WX103] | 48.9 | 6.58 | 20.3 | 
Cc1c(Nc2ccc(I)cc2F)c2c(=O)n(C3CC3)c(C)c(-c3cccc(NC(=O)NC(C)(C)C)c3)c2oc1=O [WX104] | 119 | 10.4 | 28.1 | 
Cc1c(Nc2ccc(I)cc2F)c2c(=O)n(C3CC3)c(C)c(-c3ccnc(NS(C)(=O)=O)c3)c2oc1=O [WX105] | 282 | 8.19 | 16.2 | 
Cc1c(CS(C)(=O)=O)cccc1-c1c(C)n(C2CC2)c(=O)c2c(Nc3ccc(I)cc3F)c(C)c(=O)oc12 [WX106] | 29.9 |  |  | IC50 (A375 cells; [5]): 2.32 nM; IC50 (HT29 cells; [6]): 5.89 nM
Cc1c(CS(=O)(=O)C2CC2)cccc1-c1c(C)n(C2CC2)c(=O)c2c(Nc3ccc(I)cc3F)c(C)c(=O)oc12 [WX108] | 29.6 |  |  | IC50 (A375 cells; [5]): 2.3 nM; IC50 (HT29 cells; [6]): 13.1 nM
Cc1c(CS(C)(=O)=O)cccc1-c1c(C)n(C)c(=O)c2c(Nc3ccc(I)cc3F)c(C)c(=O)oc12 [WX109] | 119 | 29.2 | 90.7 | 
CCc1c(Nc2ccc(I)cc2F)c2c(=O)n(C3CC3)c(C)c(-c3cccc(CS(C)(=O)=O)c3C)c2oc1=O [WX110] | 93.6 | 94.5 | 207 | 
Cc1ccccc1-c1c(C)n(C2CC2)c(=O)c2c(Nc3ccc(I)cc3F)c(C)c(=O)oc12 [WX111] | 14.4 | 3.56 | 14.9 | 
Cc1c(Nc2ccc(I)cc2F)c2c(=O)n(C3CC3)c(C)c(-c3cccc(C(N)=O)c3)c2oc1=O [WX112] | 52.9 | 6.04 | 20.3 | 
CC(=O)Nc1cncc(-c2c(C)n(C3CC3)c(=O)c3c(Nc4ccc(I)cc4F)c(C)c(=O)oc23)n1 [WX115] | 40.3 | 5.09 | 15.7 | 

— patent publication US11021486B2, “Coumarin-like cyclic compound as MEK inhibitor and use thereof” (CSTONE PHARMACEUTICALS, priority 2017, dated 2021)
